The source of these data is ChEMBL document CHEMBL1145206, “Design, synthesis and structure-activity relationships of novel taxane-based multidrug resistance reversal agents” (2005).

In one experiment the test system is MCF7R. The experiment is described as follows: MDR-reversal activity evaluated against the resistant human breast tumor cell line MCF7-R. The class given is functional. On the set-up: concentration or dose not given beside the values.
In a further experiment the test system is MDA-MB-435. Briefly: MDR-reversal activity evaluated against the resistant human breast tumor cell line MDA-435/LCC6-MDR. Type of experiment: functional. More on the design: concentration or dose not given beside the values.

Consider `CC(=O)O[C@H]1C(=O)[C@]2(C)[C@@H](OC(=O)/C=C/c3ccc4ccccc4c3)C[C@H]3OC[C@@]3(OC(C)=O)[C@H]2[C@H](OC(=O)c2ccccc2)[C@]2(O)C[C@H](OC(C)=O)C(C)=C1C2(C)C`, for which, in the experiment on MCF7R, the Reduction turned out to be 99.3%.

As for `CC(=O)O[C@H]1C(=O)[C@]2(C)[C@@H](OC(=O)CNC(=O)c3ccc4ccccc4c3)C[C@H]3OC[C@@]3(OC(C)=O)[C@H]2[C@H](OC(=O)c2ccccc2)[C@]2(O)C[C@H](O)C(C)=C1C2(C)C`, in the experiment on MCF7R, the Reduction is on record as 42%.

In the case of `CC(=O)O[C@H]1C(=O)[C@]2(C)[C@@H](OC(=O)/C=C/c3ccc(C(=O)c4ccccc4)cc3)C[C@H]3OC[C@@]3(OC(C)=O)[C@H]2[C@H](OC(=O)c2ccccc2)[C@]2(O)C[C@H](O)C(C)=C1C2(C)C`, the Reduction in the experiment with MCF7R stood at 99.8%.

`CC(=O)O[C@H]1C(=O)[C@]2(C)[C@@H](OC(=O)CCC3CCCC4CCCCC43)C[C@H]3OC[C@@]3(OC(C)=O)[C@H]2[C@H](OC(=O)C2CCCCC2)[C@]2(O)C[C@H](O)C(C)=C1C2(C)C` (stereo partly specified): the Reduction in the experiment with MCF7R is on record as 81%.

Turning to `COc1ccc(C(=O)Oc2ccc(/C=C/C(=O)O[C@H]3C[C@H]4OC[C@@]4(OC(C)=O)[C@H]4[C@H](OC(=O)c5ccccc5)[C@]5(O)C[C@H](OC(C)=O)C(C)=C([C@@H](OC(C)=O)C(=O)[C@]34C)C5(C)C)cc2)cc1`, the Reduction with MDA-MB-435 was 39%.

With `CC(=O)O[C@H]1C(=O)[C@]2(C)[C@@H](OC(=O)/C=C/c3ccc(C(=O)c4ccccc4)cc3)C[C@H]3OC[C@@]3(OC(C)=O)[C@H]2[C@H](OC(=O)C2CCCCC2)[C@]2(O)C[C@H](OC(C)=O)C(C)=C1C2(C)C`, the Reduction in the experiment on MDA-MB-435 worked out at 86%.

For `CC(=O)O[C@H]1C(=O)[C@]2(C)[C@@H](OC(=O)c3ccc4ccccc4c3)C[C@H]3OC[C@@]3(OC(C)=O)[C@H]2[C@H](OC(=O)c2ccccc2)[C@]2(O)C[C@H](O)C(C)=C1C2(C)C`, the Reduction in the experiment with MCF7R was 97.5%.

For the compound `CC(=O)O[C@H]1C(=O)[C@]2(C)[C@@H](OC(=O)/C=C/c3ccc(C(=O)c4cc(C(F)(F)F)cc(C(F)(F)F)c4)cc3)C[C@H]3OC[C@@]3(OC(C)=O)[C@H]2[C@H](OC(=O)c2ccccc2)[C@]2(O)C[C@H](OC(C)=O)C(C)=C1C2(C)C`, in the experiment on MDA-MB-435, the Reduction is on record as 36%.

As to `CC(=O)O[C@H]1C(=O)[C@]2(C)[C@@H](OC(=O)Cc3ccc(C(=O)c4ccccc4)cc3)C[C@H]3OC[C@@]3(OC(C)=O)[C@H]2[C@H](OC(=O)c2ccccc2)[C@]23OC(=O)O[C@H]2[C@H](OC(C)=O)C(C)=C1C3(C)C`, in the experiment on MDA-MB-435, the Reduction is on record as 44%.

`COc1ccc(CC(=O)O[C@H]2C(=O)[C@]3(C)[C@@H](OC(=O)/C=C/c4ccc(C(=O)c5ccccc5)cc4)C[C@H]4OC[C@@]4(OC(C)=O)[C@H]3[C@H](OC(=O)c3ccccc3)[C@]3(O)C[C@H](OC(C)=O)C(C)=C2C3(C)C)cc1`: the Reduction in the experiment with MDA-MB-435 is 7%.

For the compound `COC(=O)O[C@H]1C(=O)[C@]2(C)[C@@H](OC(=O)/C=C/c3ccc(C(=O)c4ccccc4)cc3)C[C@H]3OC[C@@]3(OC(C)=O)[C@H]2[C@H](OC(=O)c2ccccc2)[C@]2(O)C[C@H](OC(C)=O)C(C)=C1C2(C)C`, the Reduction in the experiment on MDA-MB-435 is reported as 91%.

As to `CC(=O)O[C@@]12CO[C@@H]1C[C@H](O)[C@@]1(C)C(=O)[C@H](OC(=O)/C=C/c3ccc(C(=O)c4ccccc4)cc3)C3=C(C)[C@@H](O)C[C@@](O)([C@@H](OC(=O)c4ccccc4)[C@H]21)C3(C)C`, the Reduction in the experiment with MCF7R was 95%.

As to `COc1cccc(C(=O)Oc2ccc(/C=C/C(=O)O[C@H]3C[C@H]4OC[C@@]4(OC(C)=O)[C@H]4[C@H](OC(=O)c5ccccc5)[C@]56OC(=O)O[C@H]5[C@H](OC(C)=O)C(C)=C([C@@H](OC(C)=O)C(=O)[C@]34C)C6(C)C)cc2)c1`, in the experiment on MDA-MB-435, the Reduction worked out at 62%.

With `CC(=O)O[C@H]1C(=O)[C@]2(C)[C@@H](OC(=O)/C=C/c3ccc(OC(=O)c4ccc5ccccc5c4)cc3)C[C@H]3OC[C@@]3(OC(C)=O)[C@H]2[C@H](OC(=O)c2ccccc2)[C@]2(O)C[C@H](OC(C)=O)C(C)=C1C2(C)C`, in the experiment on MDA-MB-435, the Reduction is given as 29%.

As for `COc1ccccc1C(=O)Oc1ccc(/C=C/C(=O)O[C@H]2C[C@H]3OC[C@@]3(OC(C)=O)[C@H]3[C@H](OC(=O)c4ccccc4)[C@]45OC(=O)O[C@H]4[C@H](OC(C)=O)C(C)=C([C@@H](OC(C)=O)C(=O)[C@]23C)C5(C)C)cc1`, the Reduction with MDA-MB-435 amounted to 79%.

As for `CC(=O)O[C@H]1C(=O)[C@]2(C)[C@@H](OC(=O)c3ccnc4ccccc34)C[C@H]3OC[C@@]3(OC(C)=O)[C@H]2[C@H](OC(=O)c2ccccc2)[C@]2(O)C[C@H](OC(C)=O)C(C)=C1C2(C)C`, the Reduction in the experiment with MDA-MB-435 was 36%.

On to `CC(=O)O[C@H]1C[C@@]2(O)[C@@H](OC(=O)c3ccccc3)[C@@H]3[C@]4(OC(C)=O)CO[C@@H]4C[C@H](OC(=O)/C=C/c4ccc(C(=O)c5ccccc5)cc4)[C@@]3(C)C(=O)[C@H](OC(=O)c3ccccc3)C(=C1C)C2(C)C`, for which the Reduction with MDA-MB-435 was found to be 51%.

Turning to `CC(=O)O[C@H]1C(=O)[C@]2(C)[C@@H](OC(=O)/C=C/c3ccc(OC(=O)c4ccc(Br)cc4)cc3)C[C@H]3OC[C@@]3(OC(C)=O)[C@H]2[C@H](OC(=O)c2ccccc2)[C@]23OC(=O)O[C@H]2[C@H](OC(C)=O)C(C)=C1C3(C)C`, the Reduction in the experiment with MDA-MB-435 is given as 34%.

For the compound `CCC(=O)O[C@H]1C(=O)[C@]2(C)[C@@H](OC(=O)/C=C/c3ccc(C(=O)c4ccccc4)cc3)C[C@H]3OC[C@@]3(OC(C)=O)[C@H]2[C@H](OC(=O)c2ccccc2)[C@]2(O)C[C@H](OC(C)=O)C(C)=C1C2(C)C`, the Reduction with MDA-MB-435 came out at 88%.

As for `CC(=O)O[C@H]1C(=O)[C@]2(C)[C@@H](OC(=O)/C=C/c3ccc(C(=O)Oc4ccccc4)cc3)C[C@H]3OC[C@@]3(OC(C)=O)[C@H]2[C@H](OC(=O)c2ccccc2)[C@]2(O)C[C@H](OC(C)=O)C(C)=C1C2(C)C`, the Reduction with MDA-MB-435 stood at 27%.

With `CC(=O)O[C@@]12CO[C@@H]1C[C@H](OC(=O)CCc1ccc(C(=O)c3ccccc3)cc1)[C@@]1(C)C(=O)[C@H](OC(=O)CCc3ccc(C(=O)c4ccccc4)cc3)C3=C(C)[C@@H](O)C[C@@](O)([C@@H](OC(=O)c4ccccc4)[C@H]21)C3(C)C`, the Reduction in the experiment with MCF7R stood at 99.7%.

As for `CC(=O)O[C@H]1C(=O)[C@]2(C)[C@@H](OC(=O)/C=C/c3ccc4c(c3)C(=O)c3ccccc3-4)C[C@H]3OC[C@@]3(OC(C)=O)[C@H]2[C@H](OC(=O)c2ccccc2)[C@]2(O)C[C@H](OC(C)=O)C(C)=C1C2(C)C`, the Reduction in the experiment with MDA-MB-435 amounted to 91%.

Consider `CC(=O)O[C@H]1C(=O)[C@]2(C)[C@@H](OC(=O)/C=C/c3ccc(Oc4ccccc4)cc3)C[C@H]3OC[C@@]3(OC(C)=O)[C@H]2[C@H](OC(=O)c2ccccc2)[C@]23OC(=O)O[C@H]2[C@H](OC(C)=O)C(C)=C1C3(C)C`, for which the Reduction with MDA-MB-435 was 90%.

With `CC(=O)O[C@H]1C(=O)[C@]2(C)[C@@H](OC(=O)/C=C/c3cccc(NC(=O)c4ccccc4)c3)C[C@H]3OC[C@@]3(OC(C)=O)[C@H]2[C@H](OC(=O)c2ccccc2)[C@]2(O)C[C@H](OC(C)=O)C(C)=C1C2(C)C`, in the experiment with MDA-MB-435, the Reduction stood at 83%.

As for `CC(=O)O[C@H]1C(=O)[C@]2(C)[C@@H](OC(C)=O)C[C@H]3OC[C@@]3(OC(C)=O)[C@H]2[C@H](OC(=O)CCc2ccc3ccccc3c2)[C@]2(O)C[C@H](OC(C)=O)C(C)=C1C2(C)C`, in the experiment with MDA-MB-435, the Reduction was 24%.

Turning to `CC(=O)O[C@H]1C(=O)[C@]2(C)[C@@H](OC(=O)/C=C/c3ccc(Sc4ccccc4)cc3)C[C@H]3OC[C@@]3(OC(C)=O)[C@H]2[C@H](OC(=O)c2ccccc2)[C@]23OC(=O)O[C@H]2[C@H](OC(C)=O)C(C)=C1C3(C)C`, in the experiment on MDA-MB-435, the Reduction came to 63%.

For the compound `CC(=O)O[C@H]1C(=O)[C@]2(C)[C@@H](OC(=O)/C=C/c3ccc(OC(=O)c4cc5ccccc5[nH]4)cc3)C[C@H]3OC[C@@]3(OC(C)=O)[C@H]2[C@H](OC(=O)c2ccccc2)[C@]23OC(=O)O[C@H]2[C@H](OC(C)=O)C(C)=C1C3(C)C`, the Reduction with MDA-MB-435 is 43%.

With `CC(=O)O[C@H]1C(=O)[C@]2(C)[C@@H](OC(=O)c3ccc(C(=O)c4ccccc4)cc3)C[C@H]3OC[C@@]3(OC(C)=O)[C@H]2[C@H](OC(=O)c2ccccc2)[C@]23OC(=O)O[C@H]2[C@H](OC(C)=O)C(C)=C1C3(C)C`, the Reduction with MDA-MB-435 is listed as 92%.

As to `CC(=O)O[C@H]1C(=O)[C@]2(C)[C@@H](OC(=O)/C=C/c3ccc(OC(=O)c4cccs4)cc3)C[C@H]3OC[C@@]3(OC(C)=O)[C@H]2[C@H](OC(=O)c2ccccc2)[C@]23OC(=O)O[C@H]2[C@H](OC(C)=O)C(C)=C1C3(C)C`, the Reduction in the experiment with MDA-MB-435 came to 55%.

Regarding `CC(=O)O[C@H]1C(=O)[C@]2(C)[C@@H](OC(=O)/C=C/c3cccc(C(=O)c4ccc(C)cc4)c3)C[C@H]3OC[C@@]3(OC(C)=O)[C@H]2[C@H](OCc2ccccc2)[C@]2(O)C[C@H](OC(C)=O)C(C)=C1C2(C)C`, in the experiment on MDA-MB-435, the Reduction worked out at 91%.

Consider `CC(=O)O[C@H]1C[C@@]2(O)[C@@H](OC(=O)c3ccccc3)[C@@H]3[C@]4(OC(C)=O)CO[C@@H]4C[C@H](OC(C)=O)[C@@]3(C)C(=O)[C@H](OC(=O)/C=C/c3ccc(Sc4ccccc4)cc3)C(=C1C)C2(C)C`, for which the Reduction in the experiment on MDA-MB-435 is 28%.

As for `CC(=O)O[C@H]1C(=O)[C@]2(C)[C@@H](OC(=O)/C=C/c3ccc(C(=O)Oc4ccccc4)cc3)C[C@H]3OC[C@@]3(OC(C)=O)[C@H]2[C@H](OC(=O)c2ccccc2)[C@]23OC(=O)O[C@H]2[C@H](OC(C)=O)C(C)=C1C3(C)C`, the Reduction with MDA-MB-435 came to 84%.

`CC(=O)O[C@H]1C(=O)[C@]2(C)[C@@H](OC(=O)CCc3ccc(Cc4ccccc4)cc3)C[C@H]3OC[C@@]3(OC(C)=O)[C@H]2[C@H](OC(=O)c2ccccc2)[C@]2(O)C[C@H](OC(C)=O)C(C)=C1C2(C)C`: the Reduction in the experiment with MDA-MB-435 stood at 16%.

With `CC(=O)O[C@H]1C(=O)[C@]2(C)[C@@H](OC(=O)/C=C/c3ccc(C(=O)c4ccc(F)cc4)cc3)C[C@H]3OC[C@@]3(OC(C)=O)[C@H]2[C@H](OC(=O)c2ccccc2)[C@]2(O)C[C@H](OC(C)=O)C(C)=C1C2(C)C`, the Reduction in the experiment on MDA-MB-435 was found to be 92%.

Turning to `CC(=O)O[C@@]12CO[C@@H]1C[C@H](O)[C@@]1(C)C(=O)[C@H](O)C3=C(C)[C@@H](OC(=O)/C=C/c4ccc(C(=O)c5ccccc5)cc4)C[C@@](O)([C@@H](OC(=O)c4ccccc4)[C@H]21)C3(C)C`, the Reduction with MDA-MB-435 is 0%.

As to `CC(=O)O[C@H]1C(=O)[C@]2(C)[C@@H](OC(=O)Cc3ccc(C(=O)c4ccccc4)cc3)C[C@H]3OC[C@@]3(OC(C)=O)[C@H]2[C@H](OC(=O)c2ccccc2)[C@]2(O)C[C@H](OC(C)=O)C(C)=C1C2(C)C`, the Reduction with MDA-MB-435 is on record as 41%.
